From EP2768830B1, “APOPTOSIS-INDUCING AGENTS FOR THE TREATMENT OF CANCER AND IMMUNE AND AUTOIMMUNE DISEASES” (AbbVie Inc., priority 2011, dated 2013)
Like-named read-outs stand apart in the source and are kept apart here.

How the values were obtained:
[1] = test system: mouse FL5.12 cells transfected with Bcl-XL; experiment: FL5.12 cellular assay (cell viability, CellTiter-Glo); type: cell-based; settings: FL5.12 cells transfected with Bcl-XL, IL-3-depleted, 3% FBS assay media, 24 hours, CellTiter-Glo, read-out: FL5.12 Bcl-xL, - IL3, EC 50;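 also: each EC50 determination derived from duplicate measurements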
GST-Bcl-xL = GST-Bcl-xL (Homo sapiens, UniProt Q07817); settings: read-out: TR-FRET binding Bcl-xL Ki
Chain of GST-Bcl-xL (Q07817 whole entry): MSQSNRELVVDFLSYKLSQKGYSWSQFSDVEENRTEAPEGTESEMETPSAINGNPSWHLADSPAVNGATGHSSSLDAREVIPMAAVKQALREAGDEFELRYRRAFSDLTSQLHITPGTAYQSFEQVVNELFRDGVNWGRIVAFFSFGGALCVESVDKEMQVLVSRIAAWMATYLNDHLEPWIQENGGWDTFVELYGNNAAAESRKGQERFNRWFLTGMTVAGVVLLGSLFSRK

With `Cc1c(-c2ccc(N3CCc4cccc(C(=O)Nc5nc6ccccc6s5)c4C3)nc2C(=O)O)cnn1CC1(OCCCN2CCOCC2)CCCCCC1` [Example 155, 6-[8-(1,3-benzothiazol-2-ylcarbamoyl)-3,4-dihydroisoquinolin-2(1H)-yl]-3-[5-methyl-1-({1-[3-(morpholin-4-yl)propoxy]cycloheptyl}methyl)-1H-pyrazol-4-yl]pyridine-2-carboxylic acid] the EC50 ([1]; Mus musculus) was 7 nM and the Ki (GST-Bcl-xL) was < 0.1 nM.

`O=C(Nc1nc2ccccc2s1)c1cccc2c1CN(c1ccc(-c3cccc(Oc4ccc([N+](=O)[O-])cc4)c3)c(C(=O)O)n1)CC2` [Example 104, 6-[8-(1,3-benzothiazol-2-ylcarbamoyl)-3,4-dihydroisoquinolin-2(1H)-yl]-3-[3-(4-nitrophenoxy)phenyl]pyridine-2-carboxylic acid] was tested, and the EC50 ([1]; Mus musculus) was > 1000 nM and the Ki (GST-Bcl-xL) was 14 nM.

For `O=C(Nc1nc2ccccc2s1)c1cccc2c1CN(c1ccc(-c3cnn(C4CCc5ccccc54)c3)c(C(=O)O)n1)CC2` (centres unmarked) [Example 37, 6-[8-(1,3-benzothiazol-2-ylcarbamoyl)-3,4-dihydroisoquinolin-2(1H)-yl]-3-[1-(2,3-dihydro-1H-inden-1-yl)-1H-pyrazol-4-yl]pyridine-2-carboxylic acid], the EC50 ([1]; Mus musculus) was 347 nM and the Ki (GST-Bcl-xL) was 17 nM.

`O=C(Nc1nc2ccccc2s1)c1cccc2c1CN(c1ccc(-c3cnn(CC4CCCCC4)c3)c(C(=O)O)n1)CC2` [Example 42, 6-[8-(1,3-benzothiazol-2-ylcarbamoyl)-3,4-dihydroisoquinolin-2(1H)-yl]-3-[1-(cyclohexylmethyl)-1H-pyrazol-4-yl]pyridine-2-carboxylic acid] showed an EC50 ([1]; Mus musculus) of 233 nM and a Ki (GST-Bcl-xL) of 2 nM.

For `CC(C)(C)Cn1cc(-c2ccc(N3CCc4cccc(C(=O)Nc5nc6ccccc6s5)c4C3)nc2C(=O)O)cn1` [Example 59, 6-[8-(1,3-benzothiazol-2-ylcarbamoyl)-3,4-dihydroisoquinolin-2(1H)-yl]-3-[1-(2,2-dimethylpropyl)-1H-pyrazol-4-yl]pyridine-2-carboxylic acid], the EC50 [1] was > 1000 nM and the Ki (GST-Bcl-xL) was 424 nM.

`CC1(C)CCCC(Cn2cc(-c3ccc(N4CCc5cccc(C(=O)Nc6nc7ccccc7s6)c5C4)nc3C(=O)O)cn2)C1` (centres unmarked) [Example 92, 6-[8-(1,3-benzothiazol-2-ylcarbamoyl)-3,4-dihydroisoquinolin-2(1H)-yl]-3-{1-[(3,3-dimethylcyclohexyl)methyl]-1H-pyrazol-4-yl}pyridine-2-carboxylic acid] was tested, and the EC50 ([1]; Mus musculus) was 56 nM and the Ki (GST-Bcl-xL) was 2 nM.

`COCCC1(Cn2ncc(-c3ccc(N4CCc5cccc(C(=O)Nc6nc7ccccc7s6)c5C4)nc3C(=O)O)c2C)CCCCCC1` [Example 134, 6-[8-(1,3-benzothiazol-2-ylcarbamoyl)-3,4-dihydroisoquinolin-2(1H)-yl]-3-(1-{[1-(2-methoxyethyl)cycloheptyl]methyl}-5-methyl-1H-pyrazol-4-yl)pyridine-2-carboxylic acid] was tested, and the EC50 ([1]; Mus musculus) was 0.9 nM and the Ki (GST-Bcl-xL) was < 0.1 nM.

In the case of `COCCOC1(Cn2c(C#N)cc(-c3ccc(N4CCc5cccc(C(=O)Nc6nc7ccccc7s6)c5C4)nc3C(=O)O)c2C)CCCCCC1` [Example 172, 6-[8-(1,3-benzothiazol-2-ylcarbamoyl)-3,4-dihydroisoquinolin-2(1H)-yl]-3-(5-cyano-1-{[1-(2-methoxyethoxy)cycloheptyl]methyl}-2-methyl-1H-pyrrol-3-yl)pyridine-2-carboxylic acid], the EC50 ([1]; Mus musculus) is reported as 1 nM and the Ki (GST-Bcl-xL) is reported as < 0.1 nM.

`O=C(Nc1nc2ccccc2s1)c1cccc2c1CN(c1ccc(-c3cccc(Oc4ccc(Cl)cc4)c3)c(C(=O)O)n1)CC2` [Example 105, 6-[8-(1,3-benzothiazol-2-ylcarbamoyl)-3,4-dihydroisoquinolin-2(1H)-yl]-3-[3-(4-chlorophenoxy)phenyl]pyridine-2-carboxylic acid] was tested, and the EC50 ([1]; Mus musculus) was > 1000 nM and the Ki (GST-Bcl-xL) was 7 nM.

For `O=C(Nc1nc2ccccc2s1)c1cccc2c1CN(c1ccc(-c3ccc4c(cnn4Cc4ccccc4)c3)c(C(=O)O)n1)CC2` [Example 153, 6-[8-(1,3-benzothiazol-2-ylcarbamoyl)-3,4-dihydroisoquinolin-2(1H)-yl]-3-(1-benzyl-1H-indazol-5-yl)pyridine-2-carboxylic acid], the EC50 ([1]; Mus musculus) was 587 nM and the Ki (GST-Bcl-xL) was 0.3 nM.
